The results in this text go back to ChEMBL document CHEMBL1201862, “PubChem BioAssay data set” (2004).

Among the test systems are M14; SK-MEL-2; CCRF-CEM; SF-539; T47D; U-251; OVCAR-8; SK-MEL-5; RXF 393; OVCAR-4; LOX IMVI; BT-549; A498; CAKI-1; HCT-116; SNB-75; NCI-H226; MOLT-4; IGROV-1; NCI-H460.
Holding throughout (assay): growth of human tumour cells (NCI), 48 h

Each structure is given as a SMILES string.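 Briefly, cells in 96-well plates were exposed to five compound concentrations for 48 h, and endpoints were estimated by linear interpolation. The concentration for 50% growth inhibition is given as GI50.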 The source made the active and inactive calls. Cut-off read from the data, not from the text of the source: active = GI50 up to about 1.1 µM and inactive = higher. Residues, ends and D or L forms follow the SMILES beside them. *: point of attachment. Pentanoyl = CCCCC(=O)*; Boc = CC(C)(C)OC(=O)* Some results are limits rather than exact numbers.

Regarding `CCCCC(=O)Oc1ccc(CC(NC(=O)OC(C)(C)C)C(=O)NC(C)C(=O)NC(Cc2ccccc2)C(=O)NCC(N)=O)cc1` (stereo not given) (Boc-Y(Pentanoyl)AFG-NH2; configuration not given here), the GI50 with M14 is 36.7 µM (inactive); in the assay on SK-MEL-2 it was 20.7 µM (inactive); with CCRF-CEM it was 40.6 µM (inactive); with SF-539, 33.3 µM (inactive); in the assay with T47D it was 27.4 µM (inactive); in the assay on U-251 it was 20.5 µM (inactive). Further, the GI50 in the assay with OVCAR-8 is 16.8 µM (inactive); in the assay on SK-MEL-5, 70 µM (inactive); in the assay with RXF 393, 44.5 µM (inactive); in the assay with OVCAR-4, 74.1 µM (inactive); in the assay on LOX IMVI it was 16.1 µM (inactive); in the assay with BT-549, 23.7 µM (inactive). Moreover, the GI50 with A498 is > 100 µM (inactive); in the assay on CAKI-1, > 100 µM (inactive); with HCT-116 it was 21.4 µM (inactive); in the assay on SNB-75, 45.5 µM (inactive); in the assay on NCI-H226, > 100 µM (inactive); with MOLT-4, 24.3 µM (inactive). Also, the results for the GI50 in the assay on IGROV-1 and with NCI-H460 were 19.7 µM (inactive) and 31.7 µM (inactive), respectively.

`CN(Cc1cnc2c(n1)C(N)=NN(N)N2)c1ccc(C(=O)NC(CCP(=O)(O)O)C(=O)O)cc1` (stereo not given): the GI50 with M14 is 4.53 µM (inactive); with SK-MEL-2 it was > 100 µM (inactive); with CCRF-CEM it was 0.267 µM (active); in the assay on SF-539, 3.47 µM (inactive); with T47D it was > 100 µM (inactive); with U-251, > 91 µM (inactive). In addition, the GI50 was > 36.2 µM (inactive) with OVCAR-8; 5.35 µM (inactive) with SK-MEL-5; 6.22 µM (inactive) in the assay on RXF 393; > 100 µM (inactive) with OVCAR-4; 0.637 µM (active) in the assay on LOX IMVI; 16 µM (inactive) in the assay with BT-549. Also, the GI50 is 36.5 µM (inactive) in the assay on A498; > 52.8 µM (inactive) with CAKI-1; 0.45 µM (active) with HCT-116; 7.01 µM (inactive) in the assay with SNB-75; > 35.1 µM (inactive) in the assay with NCI-H226; 5.42 µM (inactive) in the assay on MOLT-4. Moreover, the GI50 is 4.86 µM (inactive) with IGROV-1 and 1.87 µM (inactive) in the assay with NCI-H460.

For `O=C(/C=C/c1ccc(O)c(O)c1)OCC(OC(=O)/C=C/c1ccc(O)c(O)c1)C(=O)O` (stereo not given), the GI50 with M14 was > 100 µM (inactive); with SK-MEL-2, > 100 µM (inactive); with CCRF-CEM, 48 µM (inactive); in the assay with SF-539, > 100 µM (inactive); in the assay with T47D, > 100 µM (inactive); with U-251 it was 63.7 µM (inactive). Also, the GI50 is > 100 µM (inactive) in the assay with OVCAR-8; > 100 µM (inactive) in the assay on SK-MEL-5; > 100 µM (inactive) with RXF 393; 90.2 µM (inactive) in the assay on OVCAR-4; 92.5 µM (inactive) with LOX IMVI; > 100 µM (inactive) with BT-549. The GI50 is > 100 µM (inactive) in the assay on A498; > 100 µM (inactive) in the assay with CAKI-1; 81.7 µM (inactive) in the assay with HCT-116; 63 µM (inactive) in the assay with SNB-75; > 100 µM (inactive) in the assay on NCI-H226; 63.4 µM (inactive) in the assay with MOLT-4. Further, the values for the GI50 with IGROV-1 and in the assay with NCI-H460 were 80.9 µM (inactive) and 86.9 µM (inactive), respectively.

As for `COc1ccc(C2C(Cl)C(=O)N2NC(=O)c2ccc(N)cc2)cc1OC` (stereo not given), the GI50 in the assay with M14 was 8.43 µM (inactive); in the assay on SK-MEL-2, 11.9 µM (inactive); in the assay with CCRF-CEM, 1.71 µM (inactive); in the assay with SF-539 it was 7.8 µM (inactive); with T47D it was 11.1 µM (inactive); in the assay with U-251, 2.72 µM (inactive). Besides, the GI50 in the assay with OVCAR-8 is 4.08 µM (inactive); in the assay with SK-MEL-5, 12.2 µM (inactive); with RXF 393, 15.3 µM (inactive); with OVCAR-4 it was 5.69 µM (inactive); in the assay with LOX IMVI it was 1.5 µM (inactive); in the assay on BT-549, 5.04 µM (inactive). Further, the GI50 was 16.6 µM (inactive) in the assay on A498; 2.92 µM (inactive) in the assay with CAKI-1; 1.5 µM (inactive) in the assay on HCT-116; 15.6 µM (inactive) in the assay on SNB-75; 18.7 µM (inactive) in the assay with NCI-H226; 1.96 µM (inactive) with MOLT-4. Further, the GI50 is 1.36 µM (inactive) in the assay with IGROV-1 and 20.1 µM (inactive) with NCI-H460.

As to `CC(=O)Nc1ncc2c(n1)-c1ccccc1OC2`, the GI50 in the assay on M14, in the assay on SK-MEL-2, in the assay on CCRF-CEM, in the assay on SF-539, with T47D and with U-251 was > 100 µM (inactive) throughout. Further, the GI50 in the assay on OVCAR-8, in the assay with SK-MEL-5, in the assay with RXF 393, in the assay with OVCAR-4, in the assay with LOX IMVI and with BT-549 was > 100 µM (inactive) each time. Besides, the GI50 in the assay with A498 is > 100 µM (inactive); in the assay with CAKI-1, > 100 µM (inactive); in the assay with HCT-116, > 100 µM (inactive); in the assay with SNB-75 it was 65.2 µM (inactive); in the assay on NCI-H226, > 100 µM (inactive); with MOLT-4, > 100 µM (inactive). In addition, the GI50 with IGROV-1 and with NCI-H460 was > 100 µM (inactive) each time.

With `O=C(O)c1ccccc1CC(Cc1ccccc1)C(=O)O` (stereo not given), the GI50 with M14, with SK-MEL-2, in the assay on CCRF-CEM, in the assay with SF-539, in the assay with T47D and in the assay with U-251 was > 100 µM (inactive) throughout. Further, the GI50 with OVCAR-8, in the assay with SK-MEL-5, in the assay with RXF 393, with OVCAR-4, in the assay on LOX IMVI and with BT-549 was > 100 µM (inactive) throughout. The GI50 in the assay with A498, in the assay on CAKI-1, with HCT-116, with SNB-75, with NCI-H226 and with MOLT-4 was > 100 µM (inactive) in each case. The GI50 in the assay on IGROV-1 and in the assay on NCI-H460 was > 100 µM (inactive) throughout.

On to `Clc1nc2c(-c3cccs3)ncnc2n1Cc1ccccc1`, for which the GI50 in the assay on M14 was 66.8 µM (inactive); in the assay with SK-MEL-2, 63.2 µM (inactive); in the assay with CCRF-CEM, > 68.1 µM (inactive); with SF-539, 40 µM (inactive); in the assay on T47D, 10.1 µM (inactive); in the assay with U-251, 38.5 µM (inactive). For the same compound, the GI50 with OVCAR-8 is 49.9 µM (inactive); in the assay with SK-MEL-5 it was 24.9 µM (inactive); in the assay with RXF 393, 17 µM (inactive); in the assay with OVCAR-4, 44.9 µM (inactive); with LOX IMVI, > 86.9 µM (inactive); in the assay with BT-549, 25.8 µM (inactive). Besides, the GI50 was 19.4 µM (inactive) in the assay on A498; 3.08 µM (inactive) in the assay with CAKI-1; 45.2 µM (inactive) in the assay on HCT-116; 21.3 µM (inactive) in the assay on SNB-75; 15.8 µM (inactive) with NCI-H226; 37.5 µM (inactive) in the assay with MOLT-4. In addition, the GI50 was 29.6 µM (inactive) in the assay with IGROV-1 and 37.9 µM (inactive) with NCI-H460.

On to `Cc1ccc2c(c1)[nH]c(=S)n2/C=C1\C(=O)Oc2ccccc2C1=O`, for which the GI50 in the assay on M14 was 39.8 µM (inactive); with SK-MEL-2, > 100 µM (inactive); with CCRF-CEM, 34.8 µM (inactive); in the assay on SF-539 it was 69.7 µM (inactive); in the assay with T47D it was 89.1 µM (inactive); in the assay on U-251, 53.1 µM (inactive). In addition, the GI50 in the assay with OVCAR-8 is 65.8 µM (inactive); in the assay on SK-MEL-5 it was 40.6 µM (inactive); in the assay with RXF 393, 30.5 µM (inactive); in the assay with OVCAR-4, 64.1 µM (inactive); in the assay with LOX IMVI, 70 µM (inactive); in the assay on BT-549 it was 45.7 µM (inactive). In addition, the GI50 with A498 is 49.1 µM (inactive); with CAKI-1 it was 19.6 µM (inactive); in the assay on HCT-116 it was 44.9 µM (inactive); in the assay on SNB-75, 38.4 µM (inactive); in the assay on NCI-H226, > 100 µM (inactive); in the assay on MOLT-4, 38.2 µM (inactive). In addition, the figures for the GI50 in the assay on IGROV-1 and with NCI-H460 were 39 µM (inactive) and 44.1 µM (inactive), respectively.

For the compound `C1=N\c2ccc(cc2)-c2ccc(cc2)/N=C\c2ccccc2OCc2cccc(n2)COc2ccccc2/1`, the GI50 was 36.4 µM (inactive) in the assay on M14; 27.6 µM (inactive) in the assay with SK-MEL-2; > 100 µM (inactive) in the assay with CCRF-CEM; 26.7 µM (inactive) in the assay on SF-539; > 54 µM (inactive) with T47D; 7.59 µM (inactive) in the assay on U-251. Moreover, the GI50 is 31.8 µM (inactive) in the assay on OVCAR-8; > 31.2 µM (inactive) with SK-MEL-5; 15.2 µM (inactive) in the assay with RXF 393; > 100 µM (inactive) with OVCAR-4; > 44.2 µM (inactive) in the assay on LOX IMVI; 32.7 µM (inactive) in the assay with BT-549. For the same compound, the GI50 with A498 was 65.9 µM (inactive); in the assay on CAKI-1, > 58.5 µM (inactive); with HCT-116 it was 24.4 µM (inactive); with SNB-75, 2.83 µM (inactive); with NCI-H226 it was 39.5 µM (inactive); in the assay on MOLT-4, > 100 µM (inactive). Besides, the GI50 in the assay on IGROV-1 is 40.6 µM (inactive); with NCI-H460, 71.6 µM (inactive).

For `N#C[BH2-][n+]1ccc(C(=O)NNCc2ccccc2)cc1`, the GI50 with M14, with SK-MEL-2, in the assay on CCRF-CEM, in the assay on SF-539, in the assay with T47D and in the assay on U-251 was > 100 µM (inactive) throughout. In addition, the GI50 in the assay on OVCAR-8, in the assay with SK-MEL-5, in the assay with RXF 393, in the assay on OVCAR-4, in the assay on LOX IMVI and in the assay with BT-549 was > 100 µM (inactive) each time. The GI50 with A498, in the assay on CAKI-1, in the assay with HCT-116, in the assay on SNB-75, in the assay with NCI-H226 and in the assay on MOLT-4 was > 100 µM (inactive) each time. Moreover, the GI50 in the assay with IGROV-1 and in the assay on NCI-H460 was > 100 µM (inactive) throughout.
